Legend:
Escherichia coli B = assay: MIC in gelose culture medium (relative to reference penicillin); type: cell-based; conditions: E.COLI B
Procedure: This is a well-known collection strain of Escherichia coli which produces very little beta-lactamase (of type I) and is, therefore, very sensitive to penicillins. As regards the classification of the beta-lactamases, use is here made of that proposed by M. H. RICHMOND and R. B. SYKES (see Advances in Microbial Physiology,9,(1973),pp.43 and 45).
(§1) For a certain number of compounds of formula (XV), the minimum inhibitory concentration (MIC) was determined as follows:
(§2) The products to be tested are introduced in increasing concentrations into a gelose culture medium in Petri dishes. A multiple inoculator is used to deposit simultaneously drops (10 microliters) of inoculum (suspension of approximately 10^5 bacteria per ml) onto the surface of the medium. After incubation at 37° C for 24 hours, the growth of the bacteria is observed. By definition, the MIC is expressed by the minimum concentration of tested compound which inhibits the multiplication of the bacteia. In the following results, however, the MIC is given as being equal to 1 for the reference compounds and the activity figures given for the tested compounds of formula (XV) are, therefore, relative values. This presentation of the results is more correct and the most reproducible because, for one and the same bacterial strain, different MIC values can be observed if they are measured at different times. This is bound up with the "seasonal" variations in the strains and their nutrient medium.

[1] = test system: Escherichia coli B-Ampi R; assay: as above; type: cell-based; conditions: E.COLI B AMPI-R
Procedure: This is a mutant of the preceding strain which we have produced.
as §1, §2

Escherichia coli K 12-44 = assay: as above; type: cell-based; conditions: E.COLI K 12-44; reference ampicillin = 1
Procedure: This is a mutant of Escherichia coli K 12, the typical reference parent strain of the species. This mutant is not a producer of beta-lactamase.
as §1, §2

[2] = test system: Escherichia coli K 12-44 R; assay: as above; type: cell-based; conditions: E.COLI K 12-44R; reference ampicillin = 1
Procedure: This strain is a pleiotropic mutant of Escherichia coli K 12-44, which we have produced. It is not a producer of beta-lactamase but, nevertheless, it has a resistance to penicillins, probably as a result of the modification of the permeability of the cell membranes.
as §1, §2

beta-lactamase TEM [3] = biological target: beta-lactamase TEM (Escherichia coli, UniProt P62593); assay: Hydrolysis kinetics: residual activity in the presence of beta-lactamase; type: biochemical, Gram-negative bacteria
Sequence of beta-lactamase TEM (Escherichia coli, UniProt P62593) (P62593 24-286 limits assumed): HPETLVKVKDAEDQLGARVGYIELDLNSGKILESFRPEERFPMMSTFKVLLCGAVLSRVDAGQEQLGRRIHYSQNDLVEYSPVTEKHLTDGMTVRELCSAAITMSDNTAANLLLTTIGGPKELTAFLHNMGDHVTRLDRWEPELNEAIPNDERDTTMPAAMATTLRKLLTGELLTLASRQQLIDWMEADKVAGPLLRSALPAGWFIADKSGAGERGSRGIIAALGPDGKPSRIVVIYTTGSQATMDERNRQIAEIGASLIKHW

beta-lactamase P 99 = beta-lactamase P 99 (Enterobacter cloacae, UniProt P05364); assay: as above; type: biochemical, Gram-negative bacteria
Sequence of beta-lactamase P 99 (P05364 21-381): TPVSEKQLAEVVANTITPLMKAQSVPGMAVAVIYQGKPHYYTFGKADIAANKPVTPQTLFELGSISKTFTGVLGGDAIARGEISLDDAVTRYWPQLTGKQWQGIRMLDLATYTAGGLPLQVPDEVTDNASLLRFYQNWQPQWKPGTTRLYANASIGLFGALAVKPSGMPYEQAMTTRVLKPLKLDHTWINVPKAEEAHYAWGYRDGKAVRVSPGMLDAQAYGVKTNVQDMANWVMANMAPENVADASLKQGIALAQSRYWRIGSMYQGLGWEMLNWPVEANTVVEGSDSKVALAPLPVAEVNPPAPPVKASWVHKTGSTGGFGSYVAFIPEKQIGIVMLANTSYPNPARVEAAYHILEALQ

[4] = test system: Staphylococcus aureus 6538; assay: MIC in gelose culture medium (relative to reference penicillin); type: cell-based; conditions: S.AUREUS 6538
Procedure: This is a Gram-positive coccus which is particularly sensitive to penicillins and which has a low resistance mechanism. This strain of Staphylococcus is, therefore, representative of a maximum sensitivity of the species.
as §1, §2

[5] = test system: Escherichia coli K 12-44 S; assay: as above; type: cell-based; conditions: E.COLI K 12-44S; reference ampicillin = 1
Procedure: It is very sensitive to penicillins due to hyperpermeability.
as §1, §2

[6] = test system: Staphylococcus aureus 52149; assay: as above; type: cell-based; conditions: S.AUREUS 52149
Procedure: This is a Gram-positive coccus, the intrinsic sensitivity of the receptor of which is equivalent to that of the preceding strain but which produces a beta-lactamase which is typical of the species and which renders it resistant to all the penicillins which are sensitive to hydrolysis.
as §1, §2

beta-lactamase TEM [7] = assay: Rate of hydrolysis by beta-lactamase measured as NaOH consumed per minute; type: biochemical
Text: This method allows the dosage of the penicilloic acid resulting from the hydrolysis of the beta-lactam function by the lytic enzyme. The results of these kinetics, as given in the following Table, clearly show the superiority of compounds E and H as compared with pencillin G.

[8] = reference 6-amino-penicillanic acid = 1

N[C@@H](C(=O)NC1C(=O)N2C1SC1(CCOCC1)C2C(=O)O)c1ccccc1 (single isomer, unassigned) [Compound B, 6-(2"-amino-2"-phenylacetamido)-2',3',5',6'-tetrahydro-spiro[penam-2,4'-[4H]pyran]-3-carboxylic acid]
MIC relative to reference compound (=1) (Escherichia coli B; reference ampicillin = 1): 3.5 | MIC relative to reference compound (=1) ([1]; reference ampicillin = 1): 1 | MIC relative to reference compound (=1) (Escherichia coli K 12-44): 3.5 | MIC relative to reference compound (=1) [2]: 1.5 | Remaining activity as percentage of initial (beta-lactamase TEM [3]; after incubation for 6 minutes): 87% | Residual activity in the presence of beta-lactamase (beta-lactamase TEM [3]; incubation time 0 minutes): 500 µmol | Residual activity in the presence of beta-lactamase (beta-lactamase TEM [3]; incubation time 2 minutes): 469 µmol | Residual activity in the presence of beta-lactamase (beta-lactamase TEM [3]; incubation time 4 minutes): 453 µmol | Residual activity in the presence of beta-lactamase (beta-lactamase TEM [3]; incubation time 6 minutes): 438 µmol | Residual activity in the presence of beta-lactamase (beta-lactamase TEM [3]; incubation time 12 minutes): 334 µmol | Residual activity in the presence of beta-lactamase (beta-lactamase TEM [3]; incubation time 18 minutes): 225 µmol | Remaining activity as percentage of initial (beta-lactamase P 99; after incubation for 9 minutes): 67% | Residual activity in the presence of beta-lactamase (beta-lactamase P 99; incubation time 0 minutes): 500 µmol | Residual activity in the presence of beta-lactamase (beta-lactamase P 99; incubation time 3 minutes): 458 µmol | Residual activity in the presence of beta-lactamase (beta-lactamase P 99; incubation time 6 minutes): 422 µmol | Residual activity in the presence of beta-lactamase (beta-lactamase P 99; incubation time 9 minutes): 334 µmol | Residual activity in the presence of beta-lactamase (beta-lactamase P 99; incubation time 12 minutes): 312 µmol | Residual activity in the presence of beta-lactamase (beta-lactamase P 99; incubation time 20 minutes): 300 µmol

NC(C(=O)NC1C(=O)N2C1SC1(CC[S+]([O-])CC1)C2C(=O)O)c1ccccc1 (stereo not drawn) [Compound J, 6-(2"-amino-2"-phenylacetamido)-2',3',5',6'-tetrahydro-spiro[penam-2,4'-[4H]thiopyran]-3-carboxylic acid 1'-oxide]
MIC relative to reference compound (=1) ([4]; reference ampicillin = 1): 2 | MIC relative to reference compound (=1) (Escherichia coli B; reference ampicillin = 1): 1 | MIC relative to reference compound (=1) ([1]; reference ampicillin = 1): 2 | MIC relative to reference compound (=1) (Escherichia coli K 12-44): 3 | MIC relative to reference compound (=1) [5]: 3 | MIC relative to reference compound (=1) [2]: 2 | Resistance to beta-lactamase as compared with ampicillin (in words) (beta-lactamase TEM [3]): No change in behavior | Resistance to beta-lactamase as compared with ampicillin (in words) (beta-lactamase P 99): No change in behavior

CC1(C)S[C@@H]2[C@H](NC(=O)Cc3ccccc3)C(=O)N2[C@H]1C(=O)O [Penicillin G, penicillin G, reference compound]
MIC relative to reference compound (=1) ([4]; reference penicillin G = 1): 1 | MIC relative to reference compound (=1) ([6]; reference penicillin G = 1): 1 | Rate of hydrolysis: microliters 0.005 N NaOH consumed per minute (beta-lactamase TEM [7]): 3.83 microliters 0.005 N NaOH per m

CC1(C)S[C@@H]2C(N)C(=O)N2[C@H]1C(=O)O (stereo partly drawn) [Penicillanic acid, 6-amino-penicillanic acid, reference compound]
MIC relative to reference compound (=1) [4, 8]: 1 | MIC relative to reference compound (=1) [6, 8]: 1 | MIC relative to reference compound (=1) (Escherichia coli B; [8]): 1 | MIC relative to reference compound (=1) [1, 8]: 1

COc1cccc(OC)c1C(=O)N[C@@H]1C(=O)N2[C@@H]1SC1(CCSCC1)[C@@H]2C(=O)O (relative stereo) [Compound G, 6-(2",6"-dimethoxybenzamido)-2',3',5',6'-tetrahydro-spiro[penam-2,4'-[4H]thiopyran]-3-carboxylic acid]
MIC relative to reference compound (=1) ([6]; reference methicillin = 1): 0.5

COc1cccc(OC)c1C(=O)N[C@@H]1C(=O)N2[C@@H]1SC(C)(C)[C@@H]2C(=O)O [Methicillin, methicillin, reference compound]
MIC relative to reference compound (=1) ([6]; reference methicillin = 1): 1

NC(C(=O)NC1C(=O)N2C1SC1(CCSCC1)C2C(=O)O)c1ccccc1 (stereo not drawn) [Compound F, 6-(2"-amino-2"-phenylacetamido)-2',3',5',6'-tetrahydro-spiro[penam-2,4'-[4H]thiopyran]-3-carboxylic acid]
MIC relative to reference compound (=1) ([4]; reference ampicillin = 1): 2 | MIC relative to reference compound (=1) (Escherichia coli B; reference ampicillin = 1): 7 | MIC relative to reference compound (=1) ([1]; reference ampicillin = 1): 3 | MIC relative to reference compound (=1) (Escherichia coli K 12-44): 10 | MIC relative to reference compound (=1) [5]: 15 | MIC relative to reference compound (=1) [2]: > 1.5 | Resistance to beta-lactamase as compared with ampicillin (in words) (beta-lactamase TEM [3]): increased resistance | Resistance to beta-lactamase as compared with ampicillin (in words) (beta-lactamase P 99): increased resistance

Cc1onc(-c2ccccc2)c1C(=O)N[C@@H]1C(=O)N2[C@@H]1SC1(CCOCC1)[C@@H]2C(=O)O (relative stereo) [Compound C, 6-(5"-methyl-3"-phenyl-4"-isoxazolecarboxamido)-2',3',5',6'-tetrahydro-spiro[penam-2,4'-[4H]pyran]-3-carboxylic acid]
MIC relative to reference compound (=1) ([4]; reference oxacillin = 1): 2 | MIC relative to reference compound (=1) ([6]; reference oxacillin = 1): 1

CC1(C)S[C@@H]2[C@H](NC(=O)[C@H](N)c3ccccc3)C(=O)N2[C@H]1C(=O)O [Ampicillin, ampicillin, reference compound]
MIC relative to reference compound (=1) ([4]; reference ampicillin = 1): 1 | MIC relative to reference compound (=1) (Escherichia coli B; reference ampicillin = 1): 1 | MIC relative to reference compound (=1) ([1]; reference ampicillin = 1): 1 | MIC relative to reference compound (=1) (Escherichia coli K 12-44): 1 | MIC relative to reference compound (=1) [5]: 1 | MIC relative to reference compound (=1) [2]: 1 | Residual activity in the presence of beta-lactamase (beta-lactamase TEM [3]; incubation time 0 minutes): 500 µmol | Residual activity in the presence of beta-lactamase (beta-lactamase TEM [3]; incubation time 6 minutes): < 50 µmol | Residual activity in the presence of beta-lactamase (beta-lactamase TEM [3]; incubation time 6 minutes, listed as ampicillin): no more detectable | Residual activity in the presence of beta-lactamase (beta-lactamase TEM [3]; incubation time 12 minutes): < 50 µmol | Residual activity in the presence of beta-lactamase (beta-lactamase TEM [3]; incubation time 18 minutes): < 50 µmol | Residual activity in the presence of beta-lactamase (beta-lactamase P 99; incubation time 0 minutes): 500 µmol | Residual activity in the presence of beta-lactamase (beta-lactamase P 99; incubation time 3 minutes): 262 µmol | Residual activity in the presence of beta-lactamase (beta-lactamase P 99; incubation time 6 minutes): 138 µmol | Residual activity in the presence of beta-lactamase (beta-lactamase P 99; incubation time 9 minutes): < 50 µmol | Residual activity in the presence of beta-lactamase (beta-lactamase P 99; incubation time 9 minutes, listed as ampicillin): no more detectable | Residual activity in the presence of beta-lactamase (beta-lactamase P 99; incubation time 12 minutes): < 50 µmol | Residual activity in the presence of beta-lactamase (beta-lactamase P 99; incubation time 20 minutes): < 50 µmol

O=C(Cc1ccccc1)N[C@@H]1C(=O)N2[C@@H]1SC1(CCOCC1)[C@@H]2C(=O)O (relative stereo) [Compound A, 6-(2"-phenylacetamido)-2',3',5',6'-tetrahydro-spiro[penam-2,4'-[4H]pyran]-3-carboxylic acid]
MIC relative to reference compound (=1) ([4]; reference penicillin G = 1): 2 | MIC relative to reference compound (=1) ([6]; reference penicillin G = 1): 2 | MIC relative to reference compound (=1) (Escherichia coli B; reference penicillin G = 1): 4 | MIC relative to reference compound (=1) ([1]; reference penicillin G = 1): 2

Cc1onc(-c2ccccc2)c1C(=O)N[C@@H]1C(=O)N2[C@@H]1SC(C)(C)[C@@H]2C(=O)O [Oxacillin, oxacillin, reference compound]
MIC relative to reference compound (=1) ([4]; reference oxacillin = 1): 1 | MIC relative to reference compound (=1) ([6]; reference oxacillin = 1): 1

— patent publication US4137236A, “Amino-spiro[oxa(or thia)cycloalkane-penam]-carboxylic” (U C B, Societe Anonyme, priority 1977, dated 1979)
